Laboratory results: ChEMBL document CHEMBL1201862, “PubChem BioAssay data set” (2004)
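Values below derive from 48-hour exposures of cells grown in 96-well plates, with endpoints linearly interpolated between the two concentrations bracketing the appropriate inhibition level. GI50 is the concentration that inhibits growth by half.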 Activity calls are given as the source filed them. Rule as the data show it: active = GI50 up to about 1.1 µM and inactive = higher.

What was measured:
Assay in all cases: NCI-60 cell line screen, 48 h
A498 = system: A498
A549 = system: A549
CAKI-1 = system: CAKI-1
CCRF-CEM = system: CCRF-CEM
COLO 205 = system: COLO 205
DLD-1 = system: DLD-1
DMS-273 = system: DMS-273
EKVX = system: EKVX
HCC 2998 = system: HCC 2998
HCT-116 = system: HCT-116
HCT-15 = system: HCT-15
HL-60 = system: HL-60
HOP-18 = system: HOP-18
HOP-62 = system: HOP-62
HOP-92 = system: HOP-92
HT-29 = system: HT-29
IGROV-1 = system: IGROV-1
K562 = system: K562
KM-20L2 = system: KM-20L2
KM12 = system: KM12
LOX IMVI = system: LOX IMVI
M19-MEL = system: M19-MEL
MCF7 = system: MCF7
MOLT-4 = system: MOLT-4
Malme-3M = system: Malme-3M
NCI-H226 = system: NCI-H226
NCI-H23 = system: NCI-H23
NCI-H460 = system: NCI-H460
NCI-H522 = system: NCI-H522
NCI/ADR-RES = system: NCI/ADR-RES
OVCAR-3 = system: OVCAR-3
OVCAR-4 = system: OVCAR-4
OVCAR-5 = system: OVCAR-5
OVCAR-8 = system: OVCAR-8
RPMI-8226 = system: RPMI-8226
RXF 393 = system: RXF 393
SF-268 = system: SF-268
SF-295 = system: SF-295
SF-539 = system: SF-539
SK-MEL-28 = system: SK-MEL-28
SK-MEL-2 = system: SK-MEL-2
SK-MEL-5 = system: SK-MEL-5
SK-OV-3 = system: SK-OV-3
SN12C = system: SN12C
SNB-19 = system: SNB-19
SNB-75 = system: SNB-75
SNB-78 = system: SNB-78
SW-620 = system: SW-620
U-251 = system: U-251
UACC-257 = system: UACC-257
UACC-62 = system: UACC-62
UO-31 = system: UO-31
XF498 = system: XF498
786-0 = system: 786-0
ACHN = system: ACHN
DMS-114 = system: DMS-114
LXFL 529 = system: LXFL 529
M14 = system: M14
SR = system: SR
TK-10 = system: TK-10
BT-549 = system: BT-549
DU-145 = system: DU-145
Hs-578T = system: Hs-578T
MDA-MB-231 = system: MDA-MB-231
MDA-MB-435 = system: MDA-MB-435
MDA-N = system: MDA-N
PC-3 = system: PC-3
T47D = system: T47D

Cc1ccc(N2Cc3c(ccc4ccccc34)OP2(=S)N2CCCC2)cc1 (configuration not stated)
GI50 (A498): > 56.5 µM (inactive) | GI50 (A549): > 100 µM (inactive) | GI50 (CAKI-1): > 100 µM (inactive) | GI50 (CCRF-CEM): > 100 µM (inactive) | GI50 (COLO 205): > 100 µM (inactive) | GI50 (DLD-1): > 100 µM (inactive) | GI50 (DMS-273): > 100 µM (inactive) | GI50 (EKVX): > 100 µM (inactive) | GI50 (HCC 2998): > 100 µM (inactive) | GI50 (HCT-116): > 100 µM (inactive) | GI50 (HCT-15): > 100 µM | GI50 (HL-60): > 100 µM (inactive) | GI50 (HOP-18): > 100 µM (inactive) | GI50 (HOP-62): > 100 µM (inactive) | GI50 (HOP-92): > 100 µM (inactive) | GI50 (HT-29): > 100 µM (inactive) | GI50 (IGROV-1): > 100 µM (inactive) | GI50 (K562): > 89.9 µM (inactive) | GI50 (KM-20L2): > 100 µM (inactive) | GI50 (KM12): > 100 µM (inactive) | GI50 (LOX IMVI): > 100 µM (inactive) | GI50 (M19-MEL): > 100 µM (inactive) | GI50 (MCF7): > 100 µM (inactive) | GI50 (MOLT-4): > 44.5 µM (inactive) | GI50 (Malme-3M): > 100 µM (inactive) | GI50 (NCI-H226): > 100 µM (inactive) | GI50 (NCI-H23): > 100 µM (inactive) | GI50 (NCI-H460): > 100 µM (inactive) | GI50 (NCI-H522): > 100 µM (inactive) | GI50 (NCI/ADR-RES): > 100 µM (inactive) | GI50 (OVCAR-3): > 40.1 µM (inactive) | GI50 (OVCAR-4): > 100 µM (inactive) | GI50 (OVCAR-5): > 100 µM (inactive) | GI50 (OVCAR-8): > 100 µM (inactive) | GI50 (RPMI-8226): > 22 µM (inactive) | GI50 (RXF 393): > 100 µM (inactive) | GI50 (SF-268): > 100 µM (inactive) | GI50 (SF-295): > 67.8 µM (inactive) | GI50 (SF-539): > 100 µM (inactive) | GI50 (SK-MEL-28): > 100 µM (inactive) | GI50 (SK-MEL-2): > 100 µM (inactive) | GI50 (SK-MEL-5): > 100 µM (inactive) | GI50 (SK-OV-3): > 100 µM (inactive) | GI50 (SN12C): > 100 µM (inactive) | GI50 (SNB-19): > 100 µM (inactive) | GI50 (SNB-75): > 100 µM (inactive) | GI50 (SNB-78): > 100 µM (inactive) | GI50 (SW-620): > 100 µM (inactive) | GI50 (U-251): > 100 µM (inactive) | GI50 (UACC-257): > 100 µM (inactive) | GI50 (UACC-62): > 100 µM (inactive) | GI50 (UO-31): 85.7 µM (inactive) | GI50 (XF498): > 100 µM (inactive)

COC(=O)C1=C(O)C(O)=C(C(=O)OC)CC1
GI50 (786-0): > 100 µM (inactive) | GI50 (A498): > 100 µM (inactive) | GI50 (A549): 37 µM (inactive) | GI50 (ACHN): > 100 µM (inactive) | GI50 (CAKI-1): > 100 µM (inactive) | GI50 (CCRF-CEM): > 100 µM (inactive) | GI50 (COLO 205): > 100 µM (inactive) | GI50 (DLD-1): > 100 µM (inactive) | GI50 (DMS-114): > 100 µM (inactive) | GI50 (DMS-273): > 100 µM (inactive) | GI50 (EKVX): > 100 µM (inactive) | GI50 (HCC 2998): > 100 µM (inactive) | GI50 (HCT-116): 15.1 µM (inactive) | GI50 (HCT-15): > 100 µM | GI50 (HL-60): > 100 µM (inactive) | GI50 (HOP-18): > 100 µM (inactive) | GI50 (HOP-62): > 100 µM (inactive) | GI50 (HOP-92): > 100 µM (inactive) | GI50 (HT-29): > 100 µM (inactive) | GI50 (IGROV-1): > 100 µM (inactive) | GI50 (K562): > 100 µM (inactive) | GI50 (KM12): > 100 µM (inactive) | GI50 (LOX IMVI): > 100 µM (inactive) | GI50 (LXFL 529): > 100 µM (inactive) | GI50 (M14): > 100 µM (inactive) | GI50 (M19-MEL): > 100 µM (inactive) | GI50 (MOLT-4): > 100 µM (inactive) | GI50 (Malme-3M): > 100 µM (inactive) | GI50 (NCI-H226): > 100 µM (inactive) | GI50 (NCI-H23): > 100 µM (inactive) | GI50 (NCI-H460): > 100 µM (inactive) | GI50 (NCI-H522): > 100 µM (inactive) | GI50 (OVCAR-3): > 100 µM (inactive) | GI50 (OVCAR-4): > 100 µM (inactive) | GI50 (OVCAR-5): > 100 µM (inactive) | GI50 (OVCAR-8): > 100 µM (inactive) | GI50 (RPMI-8226): > 100 µM (inactive) | GI50 (RXF 393): 17.9 µM (inactive) | GI50 (SF-268): > 100 µM (inactive) | GI50 (SF-295): > 100 µM (inactive) | GI50 (SF-539): > 100 µM (inactive) | GI50 (SK-MEL-28): > 100 µM (inactive) | GI50 (SK-MEL-2): > 100 µM (inactive) | GI50 (SK-MEL-5): > 100 µM (inactive) | GI50 (SK-OV-3): > 100 µM (inactive) | GI50 (SN12C): > 100 µM (inactive) | GI50 (SNB-19): > 100 µM (inactive) | GI50 (SNB-75): > 100 µM (inactive) | GI50 (SNB-78): > 100 µM (inactive) | GI50 (SR): > 100 µM (inactive) | GI50 (SW-620): > 100 µM (inactive) | GI50 (TK-10): > 100 µM (inactive) | GI50 (U-251): > 100 µM (inactive) | GI50 (UACC-257): > 100 µM (inactive) | GI50 (UACC-62): > 100 µM (inactive) | GI50 (UO-31): > 100 µM (inactive) | GI50 (XF498): > 100 µM (inactive)

CO[C@H](C(=O)[C@@H](O)[C@@H](C)O)[C@@H]1Cc2cc3cc(OC4CC(OC5CC(O)C(O)C(C)O5)C(O)C(C)O4)c(C)c(O)c3c(O)c2C(=O)[C@H]1OC1CC(OC2CC(OC3CC(C)(O)C(O)C(C)O3)C(O)C(C)O2)C(O)C(C)O1 (some centres not stated)
GI50 (786-0): 0.00927 µM (active) | GI50 (BT-549): 0.00689 µM (active) | GI50 (CAKI-1): 0.125 µM (active) | GI50 (DLD-1): 0.334 µM (active) | GI50 (DMS-114): 0.348 µM (active) | GI50 (DMS-273): 0.348 µM (active) | GI50 (DU-145): 0.0438 µM (active) | GI50 (HCT-116): 0.125 µM (active) | GI50 (HL-60): 0.128 µM (active) | GI50 (HOP-18): 0.125 µM (active) | GI50 (Hs-578T): 0.00331 µM (active) | GI50 (KM-20L2): 0.348 µM (active) | GI50 (M14): 0.0196 µM (active) | GI50 (M19-MEL): 0.314 µM (active) | GI50 (MDA-MB-231): 0.0495 µM (active) | GI50 (MDA-MB-435): 0.0197 µM (active) | GI50 (MDA-N): 0.0128 µM (active) | GI50 (NCI-H226): 0.125 µM (active) | GI50 (OVCAR-8): 0.176 µM (active) | GI50 (PC-3): 0.0284 µM (active) | GI50 (SF-539): 0.125 µM (active) | GI50 (SNB-19): 0.125 µM (active) | GI50 (SNB-78): 0.395 µM (active) | GI50 (SR): 0.00526 µM (active) | GI50 (T47D): 0.00406 µM (active) | GI50 (TK-10): 0.129 µM (active) | GI50 (XF498): 0.314 µM (active)
